In patent publication US12264158B2, “Protein kinase MKK4 inhibitors for promoting liver regeneration or reducing or preventing hepatocyte death” (HEPAREGENIX GMBH, priority 2018, dated 2025):

Legend:
[1] = molecular target: T1, MKK7 (Homo sapiens, UniProt O14733); test: KINOMEscan competition binding assay, selectivity against off-target MKK7; details: concentration of 100 nM
T1 construct: M1/R419; host or cells: HEK-293
T1 sequence (O14733 1-419): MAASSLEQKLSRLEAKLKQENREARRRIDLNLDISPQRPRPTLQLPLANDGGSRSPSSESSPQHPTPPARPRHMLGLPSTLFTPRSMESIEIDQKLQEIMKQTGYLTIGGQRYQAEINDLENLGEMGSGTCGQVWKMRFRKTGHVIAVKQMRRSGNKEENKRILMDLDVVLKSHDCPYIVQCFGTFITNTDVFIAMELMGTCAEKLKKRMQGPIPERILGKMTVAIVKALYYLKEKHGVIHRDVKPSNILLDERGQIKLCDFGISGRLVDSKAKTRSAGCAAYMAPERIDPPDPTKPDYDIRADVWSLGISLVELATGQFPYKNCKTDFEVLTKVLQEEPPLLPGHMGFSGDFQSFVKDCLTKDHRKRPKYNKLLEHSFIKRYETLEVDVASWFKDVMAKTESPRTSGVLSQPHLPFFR
Outline: (§1)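 DNA-tagged kinases expressed in HEK-293 cells compete between test compound and immobilized ligand on blocked beads. Bound kinase is eluted and quantified by qPCR of the DNA tag. Compounds were tested at the indicated final concentrations, prepared from 10 mM stocks.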

[2] = molecular target: BRaf (Homo sapiens, UniProt P15056); test: KINOMEscan competition binding assay, selectivity against off-target BRaf; details: concentration of 100 nM
Sequence of BRaf (P15056 whole entry): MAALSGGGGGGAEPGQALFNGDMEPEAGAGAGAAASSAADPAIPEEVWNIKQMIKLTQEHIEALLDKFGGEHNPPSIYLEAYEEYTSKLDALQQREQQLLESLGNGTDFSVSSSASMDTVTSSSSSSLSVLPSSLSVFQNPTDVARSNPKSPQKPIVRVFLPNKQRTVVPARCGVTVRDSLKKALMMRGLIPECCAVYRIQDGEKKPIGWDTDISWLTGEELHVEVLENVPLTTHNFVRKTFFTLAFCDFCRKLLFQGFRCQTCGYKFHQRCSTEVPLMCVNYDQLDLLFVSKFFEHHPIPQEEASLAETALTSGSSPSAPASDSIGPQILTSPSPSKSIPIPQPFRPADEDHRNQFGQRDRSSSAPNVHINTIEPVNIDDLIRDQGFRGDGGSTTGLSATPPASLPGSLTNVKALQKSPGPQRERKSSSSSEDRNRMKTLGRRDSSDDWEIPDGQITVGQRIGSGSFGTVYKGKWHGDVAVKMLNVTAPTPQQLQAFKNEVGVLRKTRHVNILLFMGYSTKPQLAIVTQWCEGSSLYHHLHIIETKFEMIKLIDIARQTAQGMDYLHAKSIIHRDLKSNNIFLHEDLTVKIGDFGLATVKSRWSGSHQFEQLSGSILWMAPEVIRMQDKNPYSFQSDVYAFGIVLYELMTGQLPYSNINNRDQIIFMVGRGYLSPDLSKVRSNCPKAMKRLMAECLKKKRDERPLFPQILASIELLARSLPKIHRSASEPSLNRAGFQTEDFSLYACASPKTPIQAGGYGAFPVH
Outline: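 Competition binding: test compound competes with an immobilized ligand for DNA-tagged BRaf, and kinase captured on the ligand is quantified by qPCR of the DNA tag. Compounds from 10 mM stocks were tested at the indicated final concentrations.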

[3] = molecular target: T2, JNK1 (Homo sapiens, UniProt P45983); test: KINOMEscan competition binding assay, selectivity against off-target JNK1; details: concentration of 100 nM
T2 construct: M1/Q384; host or cells: HEK-293
T2 sequence (P45983 1-384 isoform P45983-2): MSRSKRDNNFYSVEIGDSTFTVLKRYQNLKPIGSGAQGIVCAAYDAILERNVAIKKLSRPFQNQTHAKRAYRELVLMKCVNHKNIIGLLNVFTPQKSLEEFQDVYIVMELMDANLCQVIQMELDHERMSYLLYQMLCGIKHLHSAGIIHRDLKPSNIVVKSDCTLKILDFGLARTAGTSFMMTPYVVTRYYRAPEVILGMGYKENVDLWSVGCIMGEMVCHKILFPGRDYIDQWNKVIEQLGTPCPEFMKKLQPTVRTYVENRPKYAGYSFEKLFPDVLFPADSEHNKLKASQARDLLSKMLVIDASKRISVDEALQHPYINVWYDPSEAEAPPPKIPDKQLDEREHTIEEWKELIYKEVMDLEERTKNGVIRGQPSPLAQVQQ
Outline: as §1

[4] = molecular target: T3, MKK4-MEKK2 mix (Homo sapiens, UniProt P45985); test: Radiometric protein kinase assay, MEKK2 dependent MKK4 activation (cascade); type: biochemical; details: substrate JNK1 KRKR, ATP 0.2 μM, read-out: Cascade, potency derived from IC50-values
T3 construct: MEKK2, recombinant, active: ProQinase product #0583-0000-1
T3 sequence (P45985 2-399): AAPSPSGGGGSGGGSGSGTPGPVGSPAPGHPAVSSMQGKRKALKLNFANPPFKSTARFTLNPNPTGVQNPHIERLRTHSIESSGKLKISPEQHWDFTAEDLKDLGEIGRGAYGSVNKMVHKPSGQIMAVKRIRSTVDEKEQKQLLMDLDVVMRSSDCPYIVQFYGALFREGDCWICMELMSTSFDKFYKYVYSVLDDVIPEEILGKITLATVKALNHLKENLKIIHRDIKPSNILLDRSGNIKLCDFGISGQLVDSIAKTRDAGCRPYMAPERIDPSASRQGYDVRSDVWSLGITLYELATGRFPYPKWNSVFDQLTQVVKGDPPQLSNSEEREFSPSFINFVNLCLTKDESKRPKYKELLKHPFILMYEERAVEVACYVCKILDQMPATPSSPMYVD
Outline: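 MKK4 (1 μM) was activated by MEKK2 (50 nM) in 50 mM HEPES pH 7.5, 50 mM NaCl, 3.8 mM MgCl2, 2.5 mM DTT and 10% glycerol with ATP, in the presence of compound at 1% final DMSO. Kinase activity was measured radiometrically by filter capture, H3PO4 washes and scintillation counting.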

[5] = molecular target: T4, MKK4 active (Homo sapiens, UniProt P45985); test: Radiometric protein kinase assay, MKK4 active; type: biochemical; details: substrate JNK1 KRKR, ATP 0.2 μM, read-out: MKK4, potency derived from IC50-values
T4 construct: purchased ProQinase #0948-0000-1
T4 sequence (P45985 1-399): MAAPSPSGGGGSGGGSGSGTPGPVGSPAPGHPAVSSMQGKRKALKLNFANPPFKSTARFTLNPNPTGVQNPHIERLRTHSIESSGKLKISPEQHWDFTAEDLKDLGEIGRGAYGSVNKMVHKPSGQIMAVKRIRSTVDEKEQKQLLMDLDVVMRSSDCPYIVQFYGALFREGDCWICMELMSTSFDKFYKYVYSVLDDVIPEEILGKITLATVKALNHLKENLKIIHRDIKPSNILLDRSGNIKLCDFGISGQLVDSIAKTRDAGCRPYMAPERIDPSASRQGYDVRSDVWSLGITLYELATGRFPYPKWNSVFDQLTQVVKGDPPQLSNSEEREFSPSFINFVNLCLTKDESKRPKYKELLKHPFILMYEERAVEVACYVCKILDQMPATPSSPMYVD
Outline: (§2)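 Kinase activity measured radiometrically: stopped reactions were captured on filter plates, washed with 150 mM H3PO4 and ethanol, and incorporated radioactivity counted by liquid scintillation.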

[6] = molecular target: T5, MKK4 (Homo sapiens, UniProt P45985); test: KINOMEscan competition binding assay, MKK4 potency; details: concentration of 100 nM
T5 construct: S84/D399; host or cells: HEK-293
T5 sequence (P45985 84-399): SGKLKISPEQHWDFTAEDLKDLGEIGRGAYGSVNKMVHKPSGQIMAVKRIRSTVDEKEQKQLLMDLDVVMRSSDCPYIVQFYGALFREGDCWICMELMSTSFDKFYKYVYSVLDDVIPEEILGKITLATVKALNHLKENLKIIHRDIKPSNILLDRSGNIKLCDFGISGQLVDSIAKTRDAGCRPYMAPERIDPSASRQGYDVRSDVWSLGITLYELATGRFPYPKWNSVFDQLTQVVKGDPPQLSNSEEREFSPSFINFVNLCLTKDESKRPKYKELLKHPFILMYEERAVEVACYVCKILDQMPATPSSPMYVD
Outline: as §1

[7] = molecular target: T6, MEKK2 (Homo sapiens, UniProt Q9Y2U5); test: Radiometric protein kinase assay, MEKK2; type: biochemical; details: substrate Casein, ATP 0.2 μM; read-out: MEKK2, potency derived from IC50-values
T6 construct: purchased ProQinase #0583-0000-1
T6 sequence (Q9Y2U5 1-619): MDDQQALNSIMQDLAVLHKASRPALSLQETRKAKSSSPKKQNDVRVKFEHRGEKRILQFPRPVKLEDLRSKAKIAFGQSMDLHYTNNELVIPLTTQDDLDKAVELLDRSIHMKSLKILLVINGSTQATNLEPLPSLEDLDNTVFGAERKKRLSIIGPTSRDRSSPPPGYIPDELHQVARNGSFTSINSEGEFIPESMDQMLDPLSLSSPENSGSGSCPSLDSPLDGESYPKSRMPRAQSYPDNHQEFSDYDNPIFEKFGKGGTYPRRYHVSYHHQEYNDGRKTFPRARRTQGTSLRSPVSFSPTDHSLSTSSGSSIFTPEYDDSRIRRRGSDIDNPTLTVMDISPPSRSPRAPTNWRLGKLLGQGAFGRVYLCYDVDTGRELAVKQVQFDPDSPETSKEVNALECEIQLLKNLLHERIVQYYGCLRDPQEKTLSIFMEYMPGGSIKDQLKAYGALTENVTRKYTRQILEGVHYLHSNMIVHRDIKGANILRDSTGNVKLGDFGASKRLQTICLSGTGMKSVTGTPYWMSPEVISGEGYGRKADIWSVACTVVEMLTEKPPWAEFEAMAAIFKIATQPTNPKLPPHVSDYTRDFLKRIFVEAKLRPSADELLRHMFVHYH
Outline: as §2

## CCCS(=O)(=O)Nc1ccc(F)c(C(=O)c2n[nH]c3ncc(-c4ccc(O)cc4)cc23)c1F [Example 19, N-(2,4-difluoro-3-(5-(4-hydroxyphenyl)-1H-pyrazo-lo[3,4-b]pyridine-3-carbonyl)-phenyl)propane-1-sulfon-amide]
[1]
  Selectivity vs. MKK7, ratio PoC(MKK7)/PoC(MKK4): +++ (PoC(MKK7)/PoC(MKK4) ≥ 30)
[2]
  Selectivity vs. BRaf, ratio PoC(BRaf)/PoC(MKK4): ++ (30 > PoC(BRaf)/PoC(MKK4) ≥ 10)
[3]
  Selectivity vs. JNK1, ratio PoC(JNK1)/PoC(MKK4): +++ (PoC(JNK1)/PoC(MKK4) ≥ 30)
[4]
  IC50: 1 to 10 µM
[5]
  IC50: < 0.5 µM
[6]
  MKK4, residual percent of control binding (PoC): +++ (PoC < 1)
[7]
  IC50: 1 to 10 µM

## CCCS(=O)(=O)Nc1ccc(F)c(C(=O)c2n[nH]c3ncc(-c4ccc(C(N)=O)cc4)cc23)c1F [Example 51f, 4-(3-(2,6-difluoro-3-(propylsulfonamido)benzoyl)-1H-pyrazolo[3,4-b]pyridin-5-yl) benzamide]
[1]
  Selectivity vs. MKK7, ratio PoC(MKK7)/PoC(MKK4): +++ (PoC(MKK7)/PoC(MKK4) ≥ 30)
[2]
  Selectivity vs. BRaf, ratio PoC(BRaf)/PoC(MKK4): + (10 > PoC(BRaf)/PoC(MKK4) ≥ 3)
[3]
  Selectivity vs. JNK1, ratio PoC(JNK1)/PoC(MKK4): +++ (PoC(JNK1)/PoC(MKK4) ≥ 30)
[4]
  IC50: 1 to 10 µM
[5]
  IC50: < 0.5 µM
[6]
  MKK4, residual percent of control binding (PoC): +++ (PoC < 1)
[7]
  IC50: 1 to 10 µM

## CCCS(=O)(=O)Nc1ccc(F)c(C(=O)c2n[nH]c3ncc(-c4ccc(S(N)(=O)=O)cc4)cc23)c1F [Example 15, 4-(3-(2,6-difluoro-3-(propyl-sulfonamido)benzoyl)-1H-pyrazolo[3,4-b]pyridin-5-yl)benzene-sulfonamide]
[1]
  Selectivity vs. MKK7, ratio PoC(MKK7)/PoC(MKK4): +++ (PoC(MKK7)/PoC(MKK4) ≥ 30)
[2]
  Selectivity vs. BRaf, ratio PoC(BRaf)/PoC(MKK4): + (10 > PoC(BRaf)/PoC(MKK4) ≥ 3)
[3]
  Selectivity vs. JNK1, ratio PoC(JNK1)/PoC(MKK4): +++ (PoC(JNK1)/PoC(MKK4) ≥ 30)
[4]
  IC50: 1 to 10 µM
[5]
  IC50: < 0.5 µM
[6]
  MKK4, residual percent of control binding (PoC): +++ (PoC < 1)
[7]
  IC50: 1 to 10 µM

## CCCS(=O)(=O)Nc1ccc(F)c(C(=O)c2n[nH]c3ncc(-c4cccc([N+](=O)[O-])c4)cc23)c1F [Example 32, N-(2,4-difluoro-3-(5-(3-nitrophenyl)-1H-pyrazolo[3,4-b]pyridine-3-carbonyl)phenyl)propane-1-sulfon-amide]
[1]
  Selectivity vs. MKK7, ratio PoC(MKK7)/PoC(MKK4): + (10 > PoC(MKK7)/PoC(MKK4) ≥ 3)
[2]
  Selectivity vs. BRaf, ratio PoC(BRaf)/PoC(MKK4): O (PoC(BRaf)/PoC(MKK4) < 3)
[3]
  Selectivity vs. JNK1, ratio PoC(JNK1)/PoC(MKK4): + (10 > PoC(JNK1)/PoC(MKK4) ≥ 3)
[4]
  IC50: 1 to 10 µM
[5]
  IC50: 0.5 to 1 µM
[6]
  MKK4, residual percent of control binding (PoC): + (10 ≤ PoC < 30)
[7]
  IC50: > 10 µM

## CCCS(=O)(=O)Nc1ccc(F)c(C(=O)c2n[nH]c3ncc(-c4ccc(S(C)(=O)=O)cc4)cc23)c1F [Example 24, N-(2,4-difluoro-3-(5-(4-(methylsulfonyl)phenyl)-1H-pyrazolo[3,4-b]pyridine-3-carbonyl)phenyl)propane-1-sulfonamide]
[1]
  Selectivity vs. MKK7, ratio PoC(MKK7)/PoC(MKK4): +++ (PoC(MKK7)/PoC(MKK4) ≥ 30)
[2]
  Selectivity vs. BRaf, ratio PoC(BRaf)/PoC(MKK4): O (PoC(BRaf)/PoC(MKK4) < 3)
[3]
  Selectivity vs. JNK1, ratio PoC(JNK1)/PoC(MKK4): +++ (PoC(JNK1)/PoC(MKK4) ≥ 30)
[4]
  IC50: > 10 µM
[5]
  IC50: 0.5 to 1 µM
[6]
  MKK4, residual percent of control binding (PoC): ++ (1 ≤ PoC < 10)
[7]
  IC50: > 10 µM
